Results taken from patent publication US7550135B2, “Composition for external application” (Kao Corporation, priority 2001, dated 2009).

Assay: Miscibility and mixing stability in formulations
Format: physicochemical

Measured: miscibility and mixing stability

CC(CC(=O)NCCOCCOCCNC(=O)CC(C)CC(C)(C)C)CC(C)(C)C (stereo not drawn) [Compound (K)]
excellent: O/W cream of Example 2, 3.5% | hair liquid composition of Example 4, 1.0% | night cream of Example 5, 10.0% | shampoo of Example 3, 2.0% | skin lotion of Example 1, 1.0% | sunscreen emulsion of Example 6, 3.0%
